The source of these data is PubChem BioAssay AID330 (DTP/NCI, 2004).

For the assay, the system named is P388 leukemia ip, CD2F1 mice, survival T/C. The assay can be described thus: NCI In Vivo Anticancer Drug Screen. Data for tumor model P388 Leukemia (intraperitoneal) in CD2F1 (CDF1) mice. The settings on record: endpoint: median survival time, higher = longer survival. An outline of the steps:
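Mice carrying the transplanted tumor received test compound or vehicle. Survival was recorded in each group, and the value is the treated-group measurement divided by that of the vehicle-treated control group.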

Setting [1] is: dose: 50.0 mg/kg/injection, schedule: Q01DX005 (ip), vehicle: Klucel (hydroxypropylcellulose) (HPC).
Setting [2] is: dose: 100.0 mg/kg/injection, schedule: Q01DX005 (ip), vehicle: Klucel (hydroxypropylcellulose) (HPC).
Setting [3] is: dose: 200.0 mg/kg/injection, schedule: Q01DX005 (ip), vehicle: Klucel (hydroxypropylcellulose) (HPC).
The mark [4] stands for this setting: dose: 50.0 mg/kg/injection, schedule: Q01DX005 (ip), vehicle: saline with Tween-80.
Setting [5] is: dose: 100.0 mg/kg/injection, schedule: Q01DX005 (ip), vehicle: saline with Tween-80.
Where [6] appears, read: dose: 200.0 mg/kg/injection, schedule: Q01DX005 (ip), vehicle: saline with Tween-80.
[7] abbreviates: dose: 12.5 mg/kg/injection, schedule: Q01DX009 (ip), vehicle: other.
Setting [8] is: dose: 25.0 mg/kg/injection, schedule: Q01DX009 (ip), vehicle: other.
[9] abbreviates: dose: 50.0 mg/kg/injection, schedule: Q01DX009 (ip), vehicle: other.
The mark [10] stands for this setting: dose: 100.0 mg/kg/injection, schedule: Q01DX009 (ip), vehicle: other.
[11] abbreviates: dose: 200.0 mg/kg/injection, schedule: Q01DX009 (ip), vehicle: other.
[12] abbreviates: dose: 50.0 mg/kg/injection, schedule: Q01DX009 (ip), vehicle: saline with Tween-80.
Setting [13] is: dose: 100.0 mg/kg/injection, schedule: Q01DX009 (ip), vehicle: saline with Tween-80.
Setting [14] is: dose: 200.0 mg/kg/injection, schedule: Q01DX009 (ip), vehicle: saline with Tween-80.
The mark [15] stands for this setting: dose: 50.0 mg/kg/injection, schedule: Q01DX009 (ip), vehicle: saline.
[16] abbreviates: dose: 100.0 mg/kg/injection, schedule: Q01DX009 (ip), vehicle: saline.
[17] abbreviates: dose: 200.0 mg/kg/injection, schedule: Q01DX009 (ip), vehicle: saline.
Where [18] appears, read: dose: 400.0 mg/kg/injection, schedule: Q01DX009 (ip), vehicle: saline.

“And” between values parts separate entries of the source, which are not always exact repeats. Equal values may be shown once. Toxic doses and inconclusive results are not listed.

As for `O=C1C=C(O)CC(c2ccccc2)N1` (centres undefined), the T/C by setting is: under setting [1], 102 % of control; under setting [2], 104 % of control; under setting [3], 108 % of control.
For `[N-]=[N+]=NC12CC3CC(CC(C3)C1)C2`, the T/C reads like this: under setting [4], 100 % of control; under setting [5], 101 % of control; under setting [6], 106 % of control.
For `C1CC[N-]CC1.C1CC[N-]CC1.C1CC[N-]CC1.C1CC[N-]CC1.[Cl][Rh][Cl]`, the T/C runs as follows: (dose: 3.13 mg/kg/injection, schedule: Q01DX009 (ip), vehicle: saline with Tween-80) 120 % of control; (dose: 4.0 mg/kg/injection, schedule: Q01DX009 (ip), vehicle: saline) 118 % of control; (dose: 6.25 mg/kg/injection, schedule: Q01DX009 (ip), vehicle: saline with Tween-80) 120 % of control and 123 % of control; (dose: 12.5 mg/kg/injection, schedule: Q01DX009 (ip), vehicle: saline with Tween-80) 120 % of control; (dose: 25.0 mg/kg/injection, schedule: Q01DX009 (ip), vehicle: saline with Tween-80) 92 % of control.
As for `O=C(NC(CCS(=O)(=O)n1ccnc1)C(=O)OCc1ccccc1)OCc1ccccc1` (centres undefined), the T/C runs as follows: under setting [7], 97 % of control; under setting [8], 104 % of control; under setting [9], 106 % of control; under setting [10], 97 % of control; under setting [11], 90 % of control.
Regarding `O=[N+]([O-])CC(OCCCCCO)C(Cl)(Cl)Cl` (centres undefined), the T/C under setting [12] was 95 % of control, the T/C under setting [13] was 100 % of control and the T/C under setting [14] is 86 % of control.
Turning to `CC(Cl)C(=O)Nc1cc2ccccc2oc1=O` (centres undefined), the T/C reads like this: (dose: 60.0 mg/kg/injection, schedule: Q01DX005 (ip), vehicle: saline with Tween-80) 106 % of control; (dose: 120.0 mg/kg/injection, schedule: Q01DX005 (ip), vehicle: saline with Tween-80) 94 % of control; (dose: 240.0 mg/kg/injection, schedule: Q01DX005 (ip), vehicle: saline with Tween-80) 93 % of control.
`CCC(=O)N(C)C(C)C(=O)OC1CC(=O)N(C)c2cc(cc(OC)c2Cl)CC(CBr)=C/C=C/C(OC)C2(O)CC(OC(=O)N2)C(C)C2OC12C` (centres undefined): the T/C reads like this: (dose: 32.0 micrograms/kg/injection, schedule: Q01DX009 (ip), vehicle: saline + alcohol) 152 % of control; (dose: 64.0 micrograms/kg/injection, schedule: Q01DX009 (ip), vehicle: saline + alcohol) 150 % of control.
As to `CCCCN=C1Nc2nc(=NCCCC)nc3c(Br)cc(Br)c(n23)N1`, the T/C (dose: 0.18 mg/kg/injection, schedule: Q01DX005 (ip), vehicle: Klucel (hydroxypropylcellulose) (HPC)) was 101 % of control; the T/C (dose: 0.37 mg/kg/injection, schedule: Q01DX005 (ip), vehicle: Klucel (hydroxypropylcellulose) (HPC)) was 97 % of control; the T/C (dose: 0.75 mg/kg/injection, schedule: Q01DX005 (ip), vehicle: Klucel (hydroxypropylcellulose) (HPC)) was 94 % of control; the T/C (dose: 30.0 mg/kg/injection, schedule: Q01DX005 (ip), vehicle: Klucel (hydroxypropylcellulose) (HPC)) was 86 % of control; the T/C (dose: 60.0 mg/kg/injection, schedule: Q01DX005 (ip), vehicle: Klucel (hydroxypropylcellulose) (HPC)) was 87 % of control and 89 % of control.
As for `COc1ccc2c(ccc3oc([N+](=O)[O-])cc32)c1`, the T/C under setting [1] is 116 % of control.
Turning to `Cn1c2cc(Cl)c(Cl)cc2nc2cc3c(cc21)c(Cl)c(=O)c1ccccc13`, the T/C is 104 % of control under setting [12], 100 % of control under setting [13] and 98 % of control under setting [14].
Take `CN(C)CCCNC(=O)/C=C\C(=O)O`: the T/C is, setting by setting: (dose: 12.5 mg/kg/injection, schedule: Q01DX009 (ip), vehicle: saline) 107 % of control; (dose: 25.0 mg/kg/injection, schedule: Q01DX009 (ip), vehicle: saline) 100 % of control; under setting [15], 109 % of control and 93 % of control; under setting [16], 94 % of control; under setting [17], 94 % of control; under setting [18], 97 % of control.
In the case of `CN(C)C(=O)NCCCCCCNC(=O)N(C)C`, the T/C was 105 % of control under setting [15], 100 % of control under setting [16] and 110 % of control under setting [17].
With `CCCCC(=O)N1SC(NC(=O)OC)=Nc2ccccc21`, the T/C was 101 % of control under setting [1], 100 % of control under setting [2] and 109 % of control under setting [3].
As to `O=C(NC(Cc1ccc(Br)cc1)C(=O)O)c1cccc(Cl)c1` (centres undefined), the T/C by setting is: (dose: 50.0 mg/kg/injection, schedule: Q01DX005 (ip), vehicle: saline) 100 % of control; (dose: 100.0 mg/kg/injection, schedule: Q01DX005 (ip), vehicle: saline) 101 % of control.
Regarding `CC(O)Cn1nnc2ccccc2c1=O` (centres undefined), the T/C was 107 % of control under setting [4], 105 % of control under setting [5] and 112 % of control under setting [6].
On to `Nc1c(-c2ccc(C3=NCCN3)cc2)[nH]c2cc(C3=NCCN3)ccc12`, for which the T/C is 100 % of control (dose: 6.25 mg/kg/injection, schedule: Q01DX005 (ip), vehicle: Klucel (hydroxypropylcellulose) (HPC)); 118 % of control (dose: 12.5 mg/kg/injection, schedule: Q01DX005 (ip), vehicle: Klucel (hydroxypropylcellulose) (HPC)); 196 % of control under setting [1].
Consider `COC1OC(CO)C(O)C(O)C1O` (centres undefined), for which the T/C is 100 % of control under setting [15]; 94 % of control and 104 % of control under setting [16]; 109 % of control (dose: 100.0 mg/kg/injection, schedule: Q04DX003 (ip), vehicle: saline); 101 % of control and 100 % of control under setting [17]; 95 % of control (dose: 200.0 mg/kg/injection, schedule: Q04DX003 (ip), vehicle: saline); 106 % of control and 101 % of control under setting [18]. The T/C (dose: 400.0 mg/kg/injection, schedule: Q04DX003 (ip), vehicle: saline) is 95 % of control.
As to `NC(CCS(=O)(=O)NCc1ccc(S(=O)(=O)F)cc1)C(=O)O` (centres undefined), the T/C was 104 % of control under setting [7]; 103 % of control under setting [8]; 100 % of control under setting [9]; 96 % of control under setting [10]; 88 % of control under setting [11].
For the compound `O=C(Nc1ccc(C(=O)Nc2cccc(C3=NCCN3)c2)cc1)Nc1ccc(C(=O)Nc2cccc(C3=NCCN3)c2)cc1`, the T/C is, setting by setting: (dose: 100.0 mg/kg/injection, schedule: Q01DX001 (ip), vehicle: saline) 108 % of control; (dose: 200.0 mg/kg/injection, schedule: Q01DX001 (ip), vehicle: saline) 100 % of control; (dose: 400.0 mg/kg/injection, schedule: Q01DX001 (ip), vehicle: saline) 116 % of control.
As for `COC(=O)C1C(C)(C)N=[N+]([O-])C1(C)C` (centres undefined), the T/C was 102 % of control (dose: 12.5 mg/kg/injection, schedule: Q01DX009 (ip), vehicle: water); 107 % of control (dose: 25.0 mg/kg/injection, schedule: Q01DX009 (ip), vehicle: water); 99 % of control (dose: 50.0 mg/kg/injection, schedule: Q01DX009 (ip), vehicle: water); 97 % of control (dose: 100.0 mg/kg/injection, schedule: Q01DX009 (ip), vehicle: water); 99 % of control (dose: 200.0 mg/kg/injection, schedule: Q01DX009 (ip), vehicle: water).
On to `COc1ccc(CCNC(=O)CCN2C(=O)CCC2=O)cc1OC`, for which the T/C was 105 % of control (dose: 100.0 mg/kg/injection, schedule: Q01DX009 (ip), vehicle: saline sonified); 105 % of control (dose: 200.0 mg/kg/injection, schedule: Q01DX009 (ip), vehicle: saline sonified); 110 % of control (dose: 400.0 mg/kg/injection, schedule: Q01DX009 (ip), vehicle: saline sonified).
`CCC(Oc1c2ccoc2c(OC)c2oc(C)cc(=O)c12)C(=O)OCCN1CCOCC1` (centres undefined): the T/C was 102 % of control under setting [4], 104 % of control under setting [5] and 98 % of control under setting [6].
